# Experimental data published in patent publication US8338471B2, “(2,5-dioxoimidazolidin-i-yl)-n-hydroxy-acetamides as metalloproteinase inhibitors” (Medivir AB, priority 2005, dated 2012).
# Experiments:
# Type in all cases: biochemical
# recombinant human TACE = molecular target: T1, recombinant human TACE (Homo sapiens, UniProt P78536); assay: TACE enzyme assay (FRET substrate), selectivity versus MMP-12; conditions: fold difference in Ki for TACE compared to MMP-12
# T1 construct: purchased R&D Systems
# Method: The activity was measured by a continuous detection of increased fluorescence intensity during 12 min. The substrate consisted of a peptide with a fluorescent donor 7-methoxycoumarin (Mca) and a quenching acceptor 2,4-dinitrophenyl group (Dpa), typically Mca-P-L-A-Q-A-V-Dpa-R-S-S-S-R-NH2 (R&D Systems, ES003). The cleavage site by TACE is the peptide bond between Ala and Val. The compounds were tested at a range of concentrations while the enzyme and substrate concentrations were fixed. A typical TACE assay employs recombinant human TACE (supplied by R&D Systems) in an assay buffer (25 mM Tris-HCl, pH=9.0, 2.5 μM ZnCl2, 0.005% Brij 35). The enzyme concentration (TACE) used was 100 ng/ml, the substrate was prepared at a 100 μM stock solution in DMSO and a 96-well polypropylene plate was used for the reaction mixtures. To each well of the plate was added assay buffer 90.0 μl, enzyme (TACE) 0.09 μl and inhibitor 1 μl. The reactions were started by addition of substrate 10 μl/well, giving a substrate concentration of 10 μM and a total volume of 100 μl/well. The total concentration of DMSO was not above 1%. The assay was performed at ambient temperature. Product fluorescence ([…]) was monitored with a Thermo Labsystems Fluoroskan Ascent plate reader. The Ki was determined by Prism Software.
# (§1) The selectivity for MMP-12 over MMP-3 and TACE was evaluated for a representative selection of the compounds of the invention by comparing the Ki figures obtained when tested in the corresponding enzyme assays, such as those described above. The selectivity is presented as the fold difference in Ki for TACE and MMP-3 compared to MMP-12 and is calculated as the ratio Ki(TACE)/KiMMP-12 and Ki(MMP-3)/KiMMP-12 respectively.
# recombinant human MMP-3 = molecular target: T2, recombinant human MMP-3 (Homo sapiens, UniProt P08254); assay: MMP-3 enzyme assay (FRET substrate), selectivity versus MMP-12; conditions: fold difference in Ki for MMP-3 compared to MMP-12
# T2 construct: purchased R&D Systems
# Method: The activity was measured by a continuous detection of increased fluorescence intensity during 12 min. The substrate consisted of a peptide with a fluorescent donor 7-methoxycoumarin (Mca) and a quenching acceptor 2,4-dinitrophenyl group (Dpa), typically Mca-Arg-Pro-Lys-Pro-Val-Glu-Nval-Trp-Arg-Lys(Dnp)-NH2 (R&D Systems, ES002). The cleavage site by MMP-3 is the peptide bond between Glu and Nval. The compounds were tested at a range of concentrations, the enzyme concentration (MMP-3) was fixed at 400 ng/ml and the substrate concentrations was 10 μM. The MMP-3 assay used employs recombinant human MMP-3 (supplied by R&D Systems) in an assay buffer of 50 mM Tris-HCl, 200 mM calcium acetate at pH=7.5. The MMP-3 enzyme was preactivated by dilution to 0.119 mg/ml into 1 mM APMA (p-aminophenylmercuric acetate) followed by incubation at 37° C. for 24 hours. The substrate was prepared at a 100 μM stock solution in DMSO and a 96-well polypropylene plate was used for the reaction mixtures. To each well of the plate was added assay buffer 90.0 μl, enzyme (MMP-3) 0.3 μl and inhibitor 1 μl. The reactions were started by addition of substrate, 10 μl/well, to a total volume of 100 μl/well. The total concentration of DMSO was not above 1%. The assay was performed at ambient temperature. Product fluorescence ([…]) was monitored with a Thermo Labsystems Fluoroskan Ascent plate reader. The Ki was determined by Prism Software.
# as §1
# recombinant human MMP-12 = molecular target: T3, recombinant human MMP-12 (Homo sapiens, UniProt P39900); assay: MMP-12 enzyme assay (FRET substrate)
# T3 construct: purchased R&D Systems; host or cells: mouse myeloma cell line NS-40 (so in the source)
# Method: A typical MMP-12 enzyme assay employs recombinant human MMP-12 catalytic domain expressed and purified as described by Parkar A. A. et al, (2000), Protein Expression and Purification, 20:152. The purified enzyme can be used to monitor inhibitors of activity as follows: MMP-12 (50 ng/ml final concentration) is incubated for 60 minutes at room temperature with the synthetic substrate Mac-Pro-Cha-Gly-Nva-His-Ala-Dpa-NH2 in assay buffer (0.1M “Tris-HCl” (trade mark) buffer, pH 7.3 containing O.1M NaCl, 20 mM CaCl2, 0.020 mM ZnCl and 0.05% (w/v) “Brij 35” (trade mark) detergent) in the presence (5 concentrations) or absence of inhibitors. Activity is determined by measuring the fluorescence at λex 320 nm and λem 405 nm. Percent inhibition is calculated as follows: % Inhibition is equal to the (Fluorescenceplus inhibitor−Fluorescencebackground); divided by the (Fluorescenceminus inhibitor−Fluorescencebackground);
# A favoured assay employs full length recombinant human MMP-12, amino acid residues 1 to 470 (Shapiro et al 1993, J Biol Chem 268:23824-23829) expressed in mouse myeloma cell line NS-40. The purified rhMMP-12 typically has the N terminal sequence L17PLNSSTSLE and an SDS-PAGE apparent molecular mass of approx. 56 kDa. Such proteins are available from R&D Systems, USA as a lyophilised 0.2 um filtered solution of 25 mM MES, 0.15M NaCl, 10 mMCaCl2, 0.15% Brij 35, pH 5.5. Auto-activation of the rhMMP-12 can be achieved by dilution to 0.05 mg/ml into TCNB buffer (50 mMTris, 10 mM CaCl2, 0.15M NaCl, 0.05% Brij 35, pH 7) and incubation at 37 degrees for 30 hours. A preferred buffer for MMP work is 50 mM Tris.HCl, pH 7.5, 200 mM Ca acetate.
# Suitable FRET substrates include (7-methoxycoumarin-4-yl)acetyl-Pro-Leu-Gly-Leu-(3-(2,4-dinitrophenoyl)-L-2,3-diaminopropionyl)-Ala-Arg-NH2, commercially available from R&D Systems, USA. Typical specific activities are >500 picomol/min/ug, with rhMMP-12 measured with 10 uM of this substrate, 20 ng activated enzyme in 100 ul TCNB buffer at room temperature.
# An alternative general MMP substrate is Dnp-PLGLWAD-R-NH2.
# Category A indicates ≦50 nM inhibition, category B indicates 51-200 nM inhibition and category C indicates >200 nM: […]
# T3 sequence (P39900 106-470): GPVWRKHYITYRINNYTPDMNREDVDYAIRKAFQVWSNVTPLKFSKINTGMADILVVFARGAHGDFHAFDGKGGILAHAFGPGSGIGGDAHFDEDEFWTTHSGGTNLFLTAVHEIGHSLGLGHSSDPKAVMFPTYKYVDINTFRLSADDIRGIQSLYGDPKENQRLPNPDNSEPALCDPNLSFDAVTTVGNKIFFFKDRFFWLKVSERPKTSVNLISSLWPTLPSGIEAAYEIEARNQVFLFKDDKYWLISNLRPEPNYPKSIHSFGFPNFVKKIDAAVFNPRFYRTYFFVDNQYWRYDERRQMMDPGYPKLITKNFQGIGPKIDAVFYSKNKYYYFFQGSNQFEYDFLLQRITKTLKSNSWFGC
# T1 sequence (P78536 215-824): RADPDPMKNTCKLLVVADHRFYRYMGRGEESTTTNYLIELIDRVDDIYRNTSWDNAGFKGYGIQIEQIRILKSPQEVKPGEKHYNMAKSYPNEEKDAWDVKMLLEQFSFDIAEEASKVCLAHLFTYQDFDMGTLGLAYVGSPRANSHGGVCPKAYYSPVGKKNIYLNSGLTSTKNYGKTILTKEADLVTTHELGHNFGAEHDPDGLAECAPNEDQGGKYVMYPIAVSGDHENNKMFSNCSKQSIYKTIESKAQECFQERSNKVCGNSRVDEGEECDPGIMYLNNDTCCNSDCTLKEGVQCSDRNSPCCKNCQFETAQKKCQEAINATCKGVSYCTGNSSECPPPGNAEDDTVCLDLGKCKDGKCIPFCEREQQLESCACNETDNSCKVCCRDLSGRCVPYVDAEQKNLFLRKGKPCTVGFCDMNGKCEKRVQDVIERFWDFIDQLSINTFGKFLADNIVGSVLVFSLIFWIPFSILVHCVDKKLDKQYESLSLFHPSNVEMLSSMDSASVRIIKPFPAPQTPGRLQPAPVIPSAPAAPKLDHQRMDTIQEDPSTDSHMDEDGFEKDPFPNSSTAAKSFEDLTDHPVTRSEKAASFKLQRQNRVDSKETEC
# T2 sequence (P08254 100-477): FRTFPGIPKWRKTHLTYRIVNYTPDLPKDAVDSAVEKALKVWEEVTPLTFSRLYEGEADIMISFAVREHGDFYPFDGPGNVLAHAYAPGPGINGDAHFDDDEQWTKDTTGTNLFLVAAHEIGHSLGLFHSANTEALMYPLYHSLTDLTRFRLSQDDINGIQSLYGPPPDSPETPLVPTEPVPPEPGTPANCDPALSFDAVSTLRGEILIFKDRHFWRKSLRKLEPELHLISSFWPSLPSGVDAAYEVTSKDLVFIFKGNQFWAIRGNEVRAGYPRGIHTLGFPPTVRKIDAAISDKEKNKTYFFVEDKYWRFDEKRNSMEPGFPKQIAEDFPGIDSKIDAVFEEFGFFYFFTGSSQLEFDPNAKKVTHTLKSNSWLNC
SMILES,Ki(TACE)/Ki(MMP-12) (recombinant human TACE),Ki(MMP-3)/Ki(MMP-12) (recombinant human MMP-3),Ki (recombinant human MMP-12) [nM]
"CC(C)[C@H](C(=O)NO)N1C(=O)N[C@@H](CCc2ccc(-c3ccccc3)cc2)C1=O (stereo in doubt) [Example 5, 2-[4-(2-Biphenyl-4-yl-ethyl)-2,5-dioxo-imidazolidin-1-yl]-N-hydroxy-3-methyl-butyramide]",>4500,71,–
"CC(C)[C@H](C(=O)NO)N1C(=O)N[C@@H](COCc2ccc(Br)cc2)C1=O (stereo in doubt) [Example 13i, 2-[4-(4-Bromobenzyloxymethyl)-2,5-dioxo-imidazolidin-1-yl]-N-hydroxy-3-methyl-butyramide]",>190,>190,–
CC(C)[C@H](C(=O)NO)N1C(=O)N[C@@H](CCc2ccccc2)C1=O [Example 1],380,140,–
"CC(C)[C@H](C(=O)NO)N1C(=O)N[C@H](CCc2ccccc2)C1=O [Example 7, 2-(2,5-Dioxo-4-phenethyl-imidazolidin-1-yl)-N-hydroxy-3-methyl-butyramide]",>80,53,51 to 200
"O=C(NO)[C@@H](Cc1ccccc1)N1C(=O)N[C@@H](CCc2ccccc2)C1=O [Example 10, 2-(2,5-Dioxo-4-phenethyl-imidazolidin-1-yl)-N-hydroxy-3-phenhyl-propionamide]",>150,34,≤ 50
"CC(C)(C)[C@H](C(=O)NO)N1C(=O)N[C@@H](CCc2ccccc2)C1=O [Example 12, 2-(2,5-Dioxo-4-phenethyl-imidazolidin-1-yl)-N-hydroxy-3,3-dimethyl-butyramide]",245,122,–
"CC(C)[C@H](C(=O)NO)N1C(=O)N[C@@H](COCc2ccc(C(F)(F)F)cc2)C1=O [Example 14, 2-[2,5-Dioxo-4-(4-trifluoromethyl-bezyloxymethyl)-imidazolidin-1-yl]-N-hydroxy-3-methyl-butyramide]",>500,>500,≤ 50
"CC(C)[C@H](C(=O)NO)N1C(=O)N[C@@H](COCc2cccc(F)c2)C1=O [Example 15, 2-[4-(3-Fluorobenzyloxymethyl)-2,5-dioxo-imidazolidin-1-yl]-N-hydroxy-3-methyl-butyramide]",>700,120,51 to 200
CC(C)[C@H](C(=O)NO)N1C(=O)N[C@@H](CCCCNC(=O)c2ccccc2)C1=O [Example 25h],–,–,> 200

# Results, then the compound that gave them:
Ki(TACE)/Ki(MMP-12) (recombinant human TACE),Ki(MMP-3)/Ki(MMP-12) (recombinant human MMP-3),Ki (recombinant human MMP-12) [nM],SMILES
–,–,≤ 50,"CC(C)[C@H](C(=O)NO)N1C(=O)N[C@@H](CCc2ccc(Oc3ccccc3)cc2)C1=O (stereo in doubt) [Example 26, 2-{2,5-Dioxo-4-[2-(4-phenoxyphenyl)-ethyl]-imidazolidin-1-yl}-N-hydroxy-3-methyl-butyramide]"
–,–,≤ 50,"Cc1ccccc1CCC1NC(=O)N(C(C(=O)NO)C(C)C)C1=O (centres unmarked) [Example 28, 2-[2,5-Dioxo-4-(2-o-tolylethyl)-imidazolidin-1-yl]-N-hydroxy-3-methyl-butyramide]"
–,–,≤ 50,"Cc1cccc(CCC2NC(=O)N(C(C(=O)NO)C(C)C)C2=O)c1 (centres unmarked) [Example 29, 2-[2,5-Dioxo-4-(2-m-tolylethyl)-imidazolidin-1-yl]-N-hydroxy-3-methyl-butyramide]"
2200,75,≤ 50,"Cc1ccc(CCC2NC(=O)N(C(C(=O)NO)C(C)C)C2=O)cc1 (centres unmarked) [Example 30, 2-[2,5-Dioxo-4-(2-p-tolylethyl)-imidazolidin-1-yl]-N-hydroxy-3-methyl-butyramide]"
–,–,≤ 50,"COc1ccccc1CCC1NC(=O)N(C(C(=O)NO)C(C)C)C1=O (centres unmarked) [Example 31, N-Hydroxy-2-{4-[2-(2-methoxyphenyl)-ethyl]-2,5-dioxo-imidazolidin-1-yl}-3-methyl-butyramide]"
140,>200,–,"COc1cccc(CCC2NC(=O)N(C(C(=O)NO)C(C)C)C2=O)c1 (centres unmarked) [Example 32, N-Hydroxy-2-{4-[2-(3-methoxyphenyl)-ethyl]-2,5-dioxoimidazolidin-1-yl}-3-methylbutyramide]"
–,–,≤ 50,"COc1ccc(CC[C@@H]2NC(=O)N([C@@H](C(=O)NO)C(C)C)C2=O)cc1 [Example 33, N-Hydroxy-2-{4-[2-(4-methoxyphenyl)-ethyl]-2,5-dioxoimidazolidin-1-yl}-3-methylbutyramide]"
–,–,≤ 50,"CCc1ccc(CC[C@@H]2NC(=O)N([C@@H](C(=O)NO)C(C)C)C2=O)cc1 [Example 34, 2-{4-[2-(4-Ethylphenyl)-ethyl]-2,5-dioxoimidazolidin-1-yl}-N-hydroxy-3-methyl-butyramide]"
280,240,≤ 50,"CC(C)[C@H](C(=O)NO)N1C(=O)N[C@@H](CCc2ccccc2F)C1=O [Example 36, 2-{4-[2-(2-Fluorophenyl)-ethyl]-2,5-dioxoimidazolidin-1-yl}-N-hydroxy-3-methylbutyramide]"
–,–,≤ 50,"CC(C)[C@H](C(=O)NO)N1C(=O)N[C@@H](CCc2cccc(F)c2)C1=O [Example 37, 2-{4-[2-(3-Fluoro-phenyl)-ethyl]-2,5-dioxoimidazolidin-1-yl}-N-hydroxy-3-methylbutyramide]"
–,–,≤ 50,"CC(C)[C@H](C(=O)NO)N1C(=O)N[C@@H](CCc2ccc(Cc3ccccc3)cc2)C1=O [Example 39, 2-{4-[2-(4-Benzylphenyl)-ethyl]-2,5-dioxoimidazolidin-1-yl}-N-hydroxy-3-methylbutyramide]"
–,–,≤ 50,"CC(C)[C@H](C(=O)NO)N1C(=O)N[C@@H](CCc2ccc(C(=O)Cc3ccccc3)cc2)C1=O [Example 40, 2-{2,5-Dioxo-4-[2-(4-phenylacetyl-phenyl)-ethyl]-imidazolidin-1-yl}-N-hydroxy-3-methylbutyramide]"
